Source: ChEMBL document CHEMBL1201862, “PubChem BioAssay data set” (2004)
Calls of active or inactive are those of the source.

Experiments:
[1] = molecular target: T1, High affinity choline transporter 1 (Homo sapiens, UniProt Q9GZV3); assay: human choline transporter potentiators, potency – cell-based, 10-point CRC, membrane potential dye, dose response (AID 602376); assay type: functional
T1 sequence (Q9GZV3 whole entry): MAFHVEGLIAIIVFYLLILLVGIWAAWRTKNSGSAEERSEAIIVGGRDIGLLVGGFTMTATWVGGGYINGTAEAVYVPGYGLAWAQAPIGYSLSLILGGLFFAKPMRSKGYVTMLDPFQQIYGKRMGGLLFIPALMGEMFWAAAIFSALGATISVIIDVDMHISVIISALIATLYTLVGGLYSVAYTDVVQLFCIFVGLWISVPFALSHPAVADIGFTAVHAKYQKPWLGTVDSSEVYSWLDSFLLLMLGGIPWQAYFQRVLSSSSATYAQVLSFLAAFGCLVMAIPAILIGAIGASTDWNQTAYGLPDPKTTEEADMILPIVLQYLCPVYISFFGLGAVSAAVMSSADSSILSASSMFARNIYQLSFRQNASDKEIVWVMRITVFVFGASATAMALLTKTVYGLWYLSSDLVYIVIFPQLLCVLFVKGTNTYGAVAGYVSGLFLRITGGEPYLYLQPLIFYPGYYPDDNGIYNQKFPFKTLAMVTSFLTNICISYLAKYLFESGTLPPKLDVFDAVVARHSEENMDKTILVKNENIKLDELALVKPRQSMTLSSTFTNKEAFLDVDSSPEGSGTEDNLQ

[2] = molecular target: Induced myeloid leukemia cell differentiation protein Mcl-1 (Homo sapiens, UniProt Q07820); assay type: functional
Sequence of Induced myeloid leukemia cell differentiation protein Mcl-1 (Q07820 whole entry): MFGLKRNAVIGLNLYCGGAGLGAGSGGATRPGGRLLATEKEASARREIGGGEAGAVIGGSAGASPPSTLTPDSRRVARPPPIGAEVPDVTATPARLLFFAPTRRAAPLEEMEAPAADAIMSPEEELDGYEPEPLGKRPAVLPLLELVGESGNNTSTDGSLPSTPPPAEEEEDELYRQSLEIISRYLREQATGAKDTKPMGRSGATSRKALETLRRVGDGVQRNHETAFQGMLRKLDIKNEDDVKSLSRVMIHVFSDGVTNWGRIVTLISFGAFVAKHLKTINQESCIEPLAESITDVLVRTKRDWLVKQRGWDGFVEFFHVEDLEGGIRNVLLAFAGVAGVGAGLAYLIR

[3] = molecular target: Cysteine protease ATG4B (Homo sapiens, UniProt Q9Y4P1); assay type: functional;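 note: Fluorescence-based dose-response confirmation assay measuring inhibition of ATG4B activity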
Sequence of Cysteine protease ATG4B (Q9Y4P1 whole entry): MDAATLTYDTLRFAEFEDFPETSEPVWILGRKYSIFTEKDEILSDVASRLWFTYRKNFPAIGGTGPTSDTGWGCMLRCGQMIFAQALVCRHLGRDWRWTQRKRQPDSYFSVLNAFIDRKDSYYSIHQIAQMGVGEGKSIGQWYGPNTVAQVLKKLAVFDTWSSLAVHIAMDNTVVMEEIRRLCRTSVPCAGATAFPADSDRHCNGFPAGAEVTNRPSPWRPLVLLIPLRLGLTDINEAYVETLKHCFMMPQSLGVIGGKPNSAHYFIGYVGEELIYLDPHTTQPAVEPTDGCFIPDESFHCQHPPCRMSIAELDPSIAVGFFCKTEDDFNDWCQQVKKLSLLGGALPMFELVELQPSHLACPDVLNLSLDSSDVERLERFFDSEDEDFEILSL

[4] = molecular target: Phospholipase A2 (Homo sapiens, UniProt P04054); assay type: functional;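 note: confirmatory dose-response counterscreen on phospholipase A2, testing hits that came from an ultra-high-throughput screen for ATG4B inhibitors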
Sequence of Phospholipase A2 (P04054 whole entry): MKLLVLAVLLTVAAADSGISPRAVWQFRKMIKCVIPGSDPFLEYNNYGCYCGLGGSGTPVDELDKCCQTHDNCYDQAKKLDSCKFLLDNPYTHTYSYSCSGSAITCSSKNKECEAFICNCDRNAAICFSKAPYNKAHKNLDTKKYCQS

[5] = tested on: CHO-K1; assay: Counterscreen for antagonists of the orexin 1 receptor (OX1R; HCRTR1): Homogeneous time resolved fluorescence (HTRF)-based cell-based dose response assay to identify antagonists of the parental CHO-K1 cell line. [Related pubchem assays (depositor defined):AID434989, AID435008, AID463079, AID485270, AID492963, AID492964, AID492965, AID493232, AID504699, AID504701]; assay type: functional; conditions: Cricetulus griseus;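 note: potency for inhibition of ATP-stimulated IP1 production as antagonists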
[6] = Counterscreen for antagonists of the orexin 1 receptor (OX1R; HCRTR1): Fluorescence-based cell-based high throughput dose response assay to identify antagonists of the parental CHO cell line. [Related pubchem assays (depositor defined):AID434989, AID435008, AID463079, AID485270, AID492963, AID492964, AID492965, AID493232, AID504699, AID504701]; assay type: functional
[7] = molecular target: T2, Orexin/Hypocretin receptor type 1 (Homo sapiens, UniProt O43613); assay: Homogeneous Time Resolved Fluorescence (HTRF)-based cell-based high throughput dose response assay for antagonists of the orexin 1 receptor (OX1R; HCRTR1). [Related pubchem assays (depositor defined):AID434989, AID435008, AID463079, AID485270, AID492963, AID492964, AID492965, AID493232, AID504717, AID504718]; assay type: functional
T2 sequence (O43613 whole entry): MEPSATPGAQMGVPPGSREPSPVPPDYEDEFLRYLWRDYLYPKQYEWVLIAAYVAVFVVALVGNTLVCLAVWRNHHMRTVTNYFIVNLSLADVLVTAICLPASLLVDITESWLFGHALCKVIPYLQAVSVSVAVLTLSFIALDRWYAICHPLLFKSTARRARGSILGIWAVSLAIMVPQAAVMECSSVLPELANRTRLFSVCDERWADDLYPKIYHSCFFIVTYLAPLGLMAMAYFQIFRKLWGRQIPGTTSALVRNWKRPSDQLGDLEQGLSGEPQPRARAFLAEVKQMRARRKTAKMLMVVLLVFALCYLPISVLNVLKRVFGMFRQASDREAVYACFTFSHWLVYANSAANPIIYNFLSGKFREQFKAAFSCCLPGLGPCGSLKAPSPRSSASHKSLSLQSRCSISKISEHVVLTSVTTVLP

[8] = molecular target: T2, Orexin/Hypocretin receptor type 1; assay: Fluorescence-based cell-based high throughput dose response assay for antagonists of the orexin 1 receptor (OX1R; HCRTR1). [Related pubchem assays (depositor defined):AID434989, AID435008, AID463079, AID485270, AID492963, AID492964, AID492965, AID493232, AID504717, AID504718]; assay type: functional
[9] = molecular target: T3, Orexin receptor type 2 (Homo sapiens, UniProt O43614); assay: Counterscreen assay for antagonists of the orexin 1 receptor (OX1R; HCRTR1): Fluorescence-based cell-based dose response assay for antagonists of the orexin 2 receptor (OX2R; HCRTR2), run by assay provider.; assay type: functional
T3 sequence (O43614 whole entry): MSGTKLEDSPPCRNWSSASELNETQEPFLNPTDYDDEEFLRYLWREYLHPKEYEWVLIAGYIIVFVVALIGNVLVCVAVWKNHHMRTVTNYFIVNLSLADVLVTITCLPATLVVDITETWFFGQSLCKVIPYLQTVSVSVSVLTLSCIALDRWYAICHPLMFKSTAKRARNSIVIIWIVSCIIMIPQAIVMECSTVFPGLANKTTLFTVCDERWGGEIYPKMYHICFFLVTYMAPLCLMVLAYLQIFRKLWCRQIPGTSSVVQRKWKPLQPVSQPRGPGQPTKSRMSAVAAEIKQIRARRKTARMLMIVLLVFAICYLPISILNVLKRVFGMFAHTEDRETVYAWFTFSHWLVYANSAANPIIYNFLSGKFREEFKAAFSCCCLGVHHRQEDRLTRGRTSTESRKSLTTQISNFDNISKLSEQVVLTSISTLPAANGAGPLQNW

[10] = molecular target: T3, Orexin receptor type 2; assay: Counterscreen assay for antagonists of the orexin 1 receptor (OX1R; HCRTR1): Homogeneous Time Resolved Fluorescence (HTRF)-based cell-based dose response assay for antagonists of the orexin 2 receptor (OX2R; HCRTR2), run by assay provider.; assay type: functional
[11] = molecular target: T4, Short transient receptor potential channel 4 (Mus musculus, UniProt Q9QUQ5); assay: block of DAMGO-driven TRPC4 calcium entry – cell-based, HEK293 TRPC4/mu-opioid, Fluo-4 calcium, dose response (AID 434942); assay type: functional;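 note: potency of inhibitors blocking the TRPC4 calcium response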
T4 sequence (Q9QUQ5 whole entry): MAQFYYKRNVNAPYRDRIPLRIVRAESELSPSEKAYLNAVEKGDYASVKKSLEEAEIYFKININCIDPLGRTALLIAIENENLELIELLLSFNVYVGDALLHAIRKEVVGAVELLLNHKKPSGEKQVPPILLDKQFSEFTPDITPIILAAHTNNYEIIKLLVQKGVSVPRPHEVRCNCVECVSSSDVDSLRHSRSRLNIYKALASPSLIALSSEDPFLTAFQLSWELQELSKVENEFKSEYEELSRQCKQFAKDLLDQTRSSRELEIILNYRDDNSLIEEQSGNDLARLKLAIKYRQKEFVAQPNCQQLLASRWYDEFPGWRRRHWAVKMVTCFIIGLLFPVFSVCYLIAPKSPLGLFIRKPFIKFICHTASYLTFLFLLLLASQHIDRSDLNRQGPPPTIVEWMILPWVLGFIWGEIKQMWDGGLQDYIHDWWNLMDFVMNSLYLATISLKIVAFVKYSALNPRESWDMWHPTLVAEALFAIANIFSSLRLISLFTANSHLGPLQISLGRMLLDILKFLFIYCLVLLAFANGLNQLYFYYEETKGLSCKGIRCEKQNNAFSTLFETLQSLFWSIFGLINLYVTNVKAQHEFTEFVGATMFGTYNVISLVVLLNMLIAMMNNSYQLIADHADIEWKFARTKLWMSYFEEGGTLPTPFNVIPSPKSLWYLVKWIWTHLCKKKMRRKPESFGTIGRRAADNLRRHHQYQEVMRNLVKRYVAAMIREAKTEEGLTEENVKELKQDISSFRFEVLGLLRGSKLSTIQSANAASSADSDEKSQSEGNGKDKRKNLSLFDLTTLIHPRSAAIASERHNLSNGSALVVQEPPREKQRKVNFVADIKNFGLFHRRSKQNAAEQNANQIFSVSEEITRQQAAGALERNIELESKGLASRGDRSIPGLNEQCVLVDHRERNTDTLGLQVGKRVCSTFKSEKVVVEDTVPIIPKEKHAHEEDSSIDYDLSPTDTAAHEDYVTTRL

[12] = molecular target: 26S proteasome non-ATPase regulatory subunit 14 (Homo sapiens, UniProt O00487); assay: inhibition of proteasome subunit RPN11 – biochemical, fluorescence polarization, uHTS hits, confirmation (AID 602368); assay type: functional
Sequence of 26S proteasome non-ATPase regulatory subunit 14 (O00487 whole entry): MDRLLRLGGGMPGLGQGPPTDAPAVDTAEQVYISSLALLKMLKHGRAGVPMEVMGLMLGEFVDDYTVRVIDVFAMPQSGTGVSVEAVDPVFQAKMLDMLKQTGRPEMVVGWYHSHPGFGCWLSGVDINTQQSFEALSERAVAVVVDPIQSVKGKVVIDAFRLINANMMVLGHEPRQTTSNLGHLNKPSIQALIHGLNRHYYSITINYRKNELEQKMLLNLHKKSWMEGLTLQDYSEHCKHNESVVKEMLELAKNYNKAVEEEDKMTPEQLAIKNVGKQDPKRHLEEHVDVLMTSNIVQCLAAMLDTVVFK

[13] = molecular target: 72 kDa type IV collagenase (Homo sapiens, UniProt P08253); assay: Dose Response validation of uHTS RPN11 inhibitor hits using a MMP-2 Fluorescence assay.; assay type: functional
Sequence of 72 kDa type IV collagenase (P08253 whole entry): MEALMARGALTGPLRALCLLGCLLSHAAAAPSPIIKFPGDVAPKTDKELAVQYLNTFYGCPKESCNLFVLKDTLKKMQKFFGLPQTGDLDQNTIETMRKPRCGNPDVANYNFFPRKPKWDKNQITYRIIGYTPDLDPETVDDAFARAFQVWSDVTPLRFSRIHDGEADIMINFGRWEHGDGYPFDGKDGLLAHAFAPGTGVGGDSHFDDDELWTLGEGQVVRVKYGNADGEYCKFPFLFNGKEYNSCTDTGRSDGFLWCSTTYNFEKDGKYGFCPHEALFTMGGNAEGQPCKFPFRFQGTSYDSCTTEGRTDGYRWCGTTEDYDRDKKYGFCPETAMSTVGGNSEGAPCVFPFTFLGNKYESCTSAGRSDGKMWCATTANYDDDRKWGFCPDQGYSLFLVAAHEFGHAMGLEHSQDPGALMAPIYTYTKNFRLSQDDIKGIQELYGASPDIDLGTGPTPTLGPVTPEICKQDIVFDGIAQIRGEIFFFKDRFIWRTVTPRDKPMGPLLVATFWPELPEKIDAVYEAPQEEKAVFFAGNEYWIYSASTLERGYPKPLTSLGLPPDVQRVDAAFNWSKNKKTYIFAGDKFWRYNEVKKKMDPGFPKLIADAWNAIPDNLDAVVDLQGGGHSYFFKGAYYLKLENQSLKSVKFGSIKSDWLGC

[14] = molecular target: Prothrombin (Bos taurus, UniProt P00735); assay: thrombin protease inhibitors – biochemical, fluorescence polarization, uHTS hits, dose response (AID 602369); assay type: functional
[15] = decrease of insulin promoter-GFP reporter – imaging, high-content screening, mouse beta cells (AID 1628); assay type: functional; conditions: MIN6
[16] = tested on: BJ; assay: BJ-TERT fibroblast viability loss – cell-based, RAS-independent, luminescence, dose response (AID 1933); assay type: functional; conditions: Homo sapiens
[17] = MIN6 cell viability loss – mouse insulinoma, cytotoxicity control, dose response (AID 2122); assay type: functional;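 note: confirmatory high-throughput counterscreen run to flag cytotoxic compounds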
[18] = tested on: BJ; assay: cells; assay type: functional, cell-based; conditions: Homo sapiens
[19] = tested on: BJ; assay: BJ-TERT-LT-ST fibroblast viability loss – cell-based, RAS-independent, luminescence, dose response (AID 1935); assay type: functional; conditions: Homo sapiens;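 note: BJ fibroblasts immortalized with TERT plus LT and ST oncogenes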
[20] = DRD fibroblast viability loss – cell-based, non-viral oncogenic, luminescence, dose response (AID 1934); assay type: functional; conditions: Homo sapiens
[21] = THP-1 cell cytotoxicity, dose response, cytotoxicity control for non-replicating M. tuberculosis project (AID 489025); assay type: functional
[22] = HepG2 cell cytotoxicity, dose response, cytotoxicity control for non-replicating M. tuberculosis project (AID 489018); assay type: functional; conditions: Mycobacterium tuberculosis
[23] = molecular target: T5, Ubiquitin-conjugating enzyme E2 N (Homo sapiens, UniProt P61088); assay type: functional;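 note: Dose-response confirmation in a TR-FRET assay detecting UBC13-driven polyubiquitin chain formation, inhibition measured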
T5 sequence (P61088 whole entry): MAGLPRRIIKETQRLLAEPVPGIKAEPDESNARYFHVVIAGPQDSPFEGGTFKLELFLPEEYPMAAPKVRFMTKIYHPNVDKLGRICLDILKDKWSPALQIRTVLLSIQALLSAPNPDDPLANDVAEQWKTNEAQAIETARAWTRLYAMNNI

[24] = Vero E6 cell cytotoxicity, dose response, cytotoxicity control for non-replicating M. tuberculosis project, secondary assay (AID 492998); assay type: functional, VeroE6; conditions: Vero C1008
[25] = cells; assay type: functional
[26] = tested on: BJ; assay: growth inhibition of engineered Ras-driven BJ cells – cell-based, alamar blue fluorescence, cherrypicked samples, dose response (AID 2631); assay type: functional; conditions: Homo sapiens;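 note: confirmatory dose-response assay in RAS-dependent BJ fibroblasts engineered with TERT, LT and ST, with cytotoxicity read by fluorescence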
[27] = Fluorescence-based cell-based high throughput dose response assay for inhibitors of the interaction of nucleotide-binding oligomerization domain containing 2 (NOD2) and the receptor-interacting serine-threonine kinase 2 (RIPK2).; assay type: functional; conditions: Homo sapiens
[28] = molecular target: Beta Lactamase (Pseudomonas aeruginosa, UniProt Q932Y6); assay: BLA reporter interference, concentration series – BLA reporter cells, FRET fluorescence, artefact control for NOD2-RIPK2 interaction inhibitor project, dose response (AID 651552); assay type: functional, cell-based
Sequence of Beta Lactamase (Q932Y6 whole entry): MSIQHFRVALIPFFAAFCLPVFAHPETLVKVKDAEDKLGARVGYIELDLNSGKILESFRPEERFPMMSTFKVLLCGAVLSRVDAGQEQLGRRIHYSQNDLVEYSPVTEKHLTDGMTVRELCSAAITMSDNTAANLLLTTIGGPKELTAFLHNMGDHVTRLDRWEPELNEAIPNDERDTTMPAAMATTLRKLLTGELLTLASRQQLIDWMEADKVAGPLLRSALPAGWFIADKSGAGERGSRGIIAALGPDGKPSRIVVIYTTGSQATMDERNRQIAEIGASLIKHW

COc1ccc(C(CCNCc2ccc(OC)c(OC)c2)c2ccc(F)cc2)cc1 (configuration not stated)
active: EC50 [1] 20.9 µM

Cc1ccc(/N=C2N=C(O)/C(=C/C=C/c3ccco3)S\2)cc1C
active: IC50 [2] 13.4 µM | IC50 [3] 6.65 µM | IC50 [4] 5.94 µM

COc1ccc2c(Cl)c(C(=O)N/N=C/c3c(C)[nH]c4ccccc34)sc2c1
active: IC50 [7] 2.04 µM | IC50 [8] 6.57 µM
inactive: IC50 [5] > 66.2 µM | IC50 [6] > 49.8 µM | IC50 [9] 23.2 µM | IC50 [10] > 50 µM

COc1ccc(-c2nc3ccccc3s2)cc1O
active: IC50 [7] 3.25 µM | IC50 [8] 9.38 µM | IC50 [10] 9.41 µM
inactive: IC50 [5] > 66.2 µM | IC50 [6] > 49.8 µM | IC50 [9] 56 µM

CC[n+]1c(/C=C/Nc2ccccc2)oc2ccc(OC)cc21
active: EC50 [11] 3.35 µM | IC50 [12] 23.2 µM | IC50 [14] 55.6 µM
inactive: IC50 [13] > 100 µM

Cc1cc(OC(=O)c2cccs2)ccc1C(C)C
active: IC50 [3] 5.44 µM | IC50 [4] 3.74 µM

CCCCCOc1ccc(Br)cc1/C(C)=N/NC1=NCCN1
inconclusive: EC50 [19] 4.48 µM
active: IC50 [15] 1.6 µM | EC50 [16] 2.99 µM | IC50 [17] 1.26 µM | EC50 [18] 8.5 µM | EC50 [20] 5.8 µM | CC50 [21] 2.09 µM | CC50 [22] 11.3 µM | CC50 [24] 5.08 µM | IC50 [25] 21.4 µM | EC50 [26] 0.647 µM | EC50 [1] 14.8 µM
inactive: IC50 [23] > 20 µM | IC50 [27] 39.9 µM | IC50 [28] 49.8 µM
